Measured values published in patent US8178506B2, “Oligomeric compounds and compositions for use in modulation of small non-coding RNAs” (Regulus Therapeutics Inc., priority 2003, dated 2012).
In the oligonucleotide strings, read from the 5' end, every base follows the letter of its sugar. An asterisk marks phosphorothioate; unmarked linkages are phosphodiester. Other units and linkages are bracketed, terminal groups are in braces. A string of capitals states the bases alone. e = 2'-O-(2-methoxyethyl) (MOE); [5mC] = 5-methylcytosine

Tests used:
[1] = tested on: mir-143 miRNA binding site; assay: GFP mir-143 sensor reporter in T-REx-HeLa cells; format: cell-based, human; settings: for Mean fluorescence: T-REx-HeLa cells, 24 hours post-transfection
Excerpt: Reporter systems have been developed herein to assess the ability of miRNA mimics to provoke a gene silencing response and to assess whether antisense oligomeric compounds targeting miRNAs can inhibit gene silencing activity. The T-REx™-HeLa cell line (Invitrogen Corp., Carlsbad, Calif.) was used for either stable or transient transfections with plasmids constitutively expressing miRNAs, pre-miRNAs, pri-miRNAs or mimics thereof, and, in some cases, antisense oligomeric compounds targeting the expressed miRNA were also transfected into the cells. It is understood that other mammalian cells lines can also be used in this reporter system. T-REx™-HeLa cells were routinely cultured in DMEM, high glucose (Invitrogen Corporation, Carlsbad, Calif.), supplemented with 10% fetal bovine serum (Invitrogen Corporation). […] Cells were harvested when they reached 90% confluence, and on the day before transfection with expression or reporter plasmids (described in detail below), the T-REx™-HeLa cells were seeded onto 24-well plates at 50,000 cells/well. The following day, cells were transfected according to standard published procedures with various combinations of plasmids using 2 μg Lipofectamine™ 2000 Reagent (Invitrogen) per μg of plasmid DNA. When transfecting oligomeric compounds, 1-3 μg of Lipofectamine™ 2000 Reagent was used per 100 nM oligomeric compound.
Plasmids used are as follows: The pcDNA3.1©/NT-GFP (Invitrogen) plasmid, containing a CMV promoter controlling expression of a GFP reporter sequence at the N-terminus of the transcription start site was used as a control plasmid. The pcDNA3.1©/NT-GFP-mir-143 sensor plasmid contains (in addition to the elements above) three 22-nucleotide sites encoding the mir-143 miRNA binding site, downstream of the GFP coding sequence and upstream of the polyadenylation signal. The pCR3-pri-mir-143 plasmid (“pri-mir-143”) is a CMV promoter-driven constitutive expression plasmid which expresses the 110-nucleotide mir-143 pri-miRNA sequence (SEQ ID NO: 38), to act as a mir-143 pri-miRNA mimic. The pCR3-pri-mir control (“pri-mir-control”) is a CMV promotor-driven constitutive expression plasmid which is designed to express a similar 110-nucleotide pri-miRNA sequence ([…] CAGC; SEQ ID NO: 862) wherein the mature mir-143 sequence has been replaced with an unrelated sequence and the predicted complementary strand opposite it within the pri-miRNA structure is replaced with a nearly complementary sequence in order to preserve the stem loop as well as the bulge structure of the natural mir-143 pri-miRNA. Additionally, in order to test the effect of an oligomeric compound targeting a miRNA, the T-REx™-HeLa cells were also transfected with the uniform 2′-MOE phosphorothioate (PS) antisense oligomeric compound ISIS Number 327901 (SEQ ID NO: 319), targeted to mir-143 previously described.
Twenty-four hours post-transfection, cells were trypsinized and GFP fluorescence was analyzed by flow cytometry.

mir-143 binding sites = assay: pGL3-mir-143 sensor luciferase assay in HeLa cells; format: cell-based, human; settings: HeLa cells, pGL3-mir-143 sensor with pCR3-pri-mir-143 (430)
Excerpt: In one embodiment, an expression system based on the pGL3-Control (Promega Corp., Madison Wis.) vector containing a CMV promoter controlling expression of a luciferase reporter sequence was used in transient transfections of HeLa cells with plasmids expressing miRNA or pri-miRNA mimics. To assess the ability of miRNA mimics to bind and regulate the expression of the luciferase reporter gene, two reporter plasmids were constructed: 1) a synthetic DNA fragment comprising two sites perfectly complementary to mir-143 were inserted into the pGL3-Control luciferase reporter vector, to create the pGL3-mir-143 sensor plasmid, and 2) a DNA fragment comprising the 3′-UTR of the LIM domain only 4 (LMO4) gene (predicted to be regulated by mir-143) was inserted into pGL3-Control to create pGL3-LMO4; this fragment was PCR-amplified using a primer beginning at position 1261 of the LMO4 sequence (GenBank Accession NM_006769.2, incorporated herein as SEQ ID: 809) and the downstream primer hybridizing to the poly-A tail. In each of these plasmids, the target site was placed downstream of the luciferase coding sequence and upstream of the polyadenylation signal in the 3′-UTR of the luciferase reporter vector. The unmodified pGL3-Control luciferase reporter vector was used as a control.
HeLa cells were routinely cultured and passaged as described, and on the day before transfection with expression or reporter plasmids, the HeLa cells were seeded onto 24-well plates 50,000 cells/well. Cells were transfected according to standard published procedures with various combinations of plasmids using 2 μg Lipofectamine™ 2000 Reagent (Invitrogen) per μg of plasmid DNA, or, when transfecting oligomeric compounds, 1.25 μg of Lipofectamine™ 2000 Reagent per 100 nM oligonucleotide or double-stranded RNA. The luciferase signal in each well was normalized to the Renilla luciferase (RL) activity produced from a co-transfected plasmid, pRL-CMV, which was transfected at 0.5 μg per well. Cells were treated at various dosages (4 nM, 20 nM, and 100 nM) with the following oligomeric compound mimics: 1) “ds-mir-143,” 2) “ds-Control,” 3) “pCR3-pri-mir-143,” or 4) “pri-mir-control,” as described supra. In accordance with methods described in Example 12, supra, a luciferase assay was performed 48-hours after transfection. Briefly, cells were lysed in passive lysis buffer (PLB; Promega), and 20 ul of the lysate was then assayed for RL activity using a Dual Luciferase Assay kit (Promega) according to the manufacturer's protocol. The results below are an average of three trials and are presented as percent pGL3-Control luciferase expression normalized to pRL-CMV expression (RL).
In another embodiment, HeLa cells were transfected with 0.03 μg pGL3-mir-143 sensor plasmid and 0.01 μg pRL-CMV plasmid, and, in addition, (except those samples described below as “without mir-143 pri-miRNA,”) were also transfected with 0.01 μg of an expression plasmid designed to express a mir-143 pri-miRNA mimic comprising a larger 430-nt fragment of the mir-143 primary miRNA transcript, referred to as “pCR3-pri-mir-143 (430)” ([…]; SEQ ID NO: 871). […] To further evaluate the ability of the mir-143 pri-miRNA mimic to inhibit luciferase activity from the sensor plasmid, and to assess the ability of oligomeric compounds to interfere with the inhibition of pGL3-mir-143 sensor luciferase expression by the mir-143 pri-miRNA mimic, pGL3-mir-143 sensor-expressing HeLa cells treated with pCR3-pri-mir-143 (430) were additionally treated with varying concentrations (0-, 6.7- or 20 nM) of the following oligomeric compounds: 1) ISIS Number 327901 (SEQ ID NO: 319), a uniform 2′-MOE oligomeric compound targeting mir-143; 2) ISIS Number 342673 (SEQ ID NO: 758), a uniform 2′-MOE scrambled control; or 3) ISIS Number 327924 (SEQ ID NO: 342) targeting an unrelated miRNA (mir-129-2). […]

Substance	Mean fluorescence ([1]; oligo with GFP mir-143 sensor only) [arbitrary units]	Mean fluorescence ([1]; oligo with pri-mir-143, no GFP plasmid) [arbitrary units]	Mean fluorescence ([1]; oligo with pri-mir-143 and GFP mir-143 sensor) [arbitrary units]	Relative luciferase activity (mir-143 binding sites; 6.7 nM)	Relative luciferase activity (mir-143 binding sites; 20 nM)	recovery of GFP fluorescence ([1]; with 20 nM mir-143 dsRNA, 4-, 20- or 100 nM)
327901 (antisense eT*eG*eA*eG*e[5mC]*eT*eA*e[5mC]*eA*eG*eT*eG*e[5mC]*eT*eT*e[5mC]*eA*eT*e[5mC]*eT*e[5mC]*eA) [compound 327901]	4.2	3.7	4.1	4.0	6.4	–
342673 (antisense eA*eG*eA*e[5mC]*eT*eA*eG*e[5mC]*eG*eG*eT*eA*eT*e[5mC]*eT*eT*eT*eA*eT*e[5mC]*e[5mC]*e[5mC]) [compound 342673]	–	–	–	1.3	1.5	–
TGAGCTACAGTGCTTCATCTCA [ISIS 327901] (chemistry not given here) [uniform 2′-MOE PS; targets mir-143]	–	–	–	–	–	blocked the inhibitory effect of the mir-143 dsRNA oligomeric compound
